How the values were obtained:
Conditions in all cases: incubation time: 72 h
MDA-MB-468 [1] = assay: normalised response (% of control), CellTox Green; higher = less cell death (100 = DMSO, 0 = benzethonium chloride kill control)
How it was run: (§1)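 Plates were normalised with 0.1 % DMSO as 100 and a positive kill control as 0. Breast cancer cell lines in 20 µl suspension had been seeded into 384-well plates with compound at 5 concentrations in 10-fold steps over a compound-specific 10,000-fold range, incubated 72 h, and read for CellTox Green fluorescence (485/520 nm) followed by CellTiter-Glo luminescence. Each value is the normalised signal at a single concentration.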

MFM-223 [2] = assay: as above
How it was run: as §1

BT-474 [3] = assay: as above
How it was run: as §1

MDA-MB-231 [4] = assay: as above
How it was run: as §1

HCC1599 [5] = assay: as above
How it was run: as §1

CAL-120 [6] = assay: as above
How it was run: as §1

CAL-85-1 [7] = assay: as above
How it was run: as §1

DU-4475 [8] = assay: as above
How it was run: as §1

HDQ-P1 [9] = assay: as above
How it was run: as §1

BT-549 [10] = assay: as above
How it was run: as §1

CAL-148 [11] = assay: as above
How it was run: as §1

HCC1937 [12] = assay: as above
How it was run: as §1

HCC1143 [13] = assay: as above
How it was run: as §1

CAL-51 [14] = assay: as above
How it was run: as §1

MCF-10A [15] = assay: as above
How it was run: as §1

MDA-MB-436 [16] = assay: as above
How it was run: as §1

MDA-MB-453 [17] = assay: as above
How it was run: as §1

Hs578T [18] = assay: normalised response (% of control), CellTiter-Glo; higher = more viable cells (100 = DMSO, 0 = benzethonium chloride kill control)
Experimental: (§2)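 DSRT, 72 h incubation, CellTox Green / CellTiter-Glo readout. Signal is normalised to DMSO and benzethonium chloride controls. Value is the normalised response at dose 3.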

MDA-MB-468 [19] = assay: as above
Experimental: as §2

MFM-223 [20] = assay: as above
Experimental: as §2

BT-474 [21] = assay: as above
Experimental: as §2

MDA-MB-231 [22] = assay: as above
Experimental: as §2

HCC1599 [23] = assay: as above
Experimental: as §2

CAL-120 [24] = assay: as above
Experimental: as §2

CAL-85-1 [25] = assay: as above
Experimental: as §2

DU-4475 [26] = assay: as above
Experimental: as §2

SK-BR-3 = assay: as above
Experimental: as §2

HDQ-P1 [27] = assay: as above
Experimental: as §2

BT-549 [28] = assay: as above
Experimental: as §2

CAL-148 [29] = assay: as above
Experimental: as §2

HCC1937 [30] = assay: as above
Experimental: as §2

HCC1143 [31] = assay: as above
Experimental: as §2

CAL-51 [32] = assay: as above
Experimental: as §2

MCF-10A [33] = assay: as above
Experimental: as §2

MDA-MB-436 [34] = assay: as above
Experimental: as §2

MDA-MB-453 [35] = assay: as above
Experimental: as §2

Hs578T [36] = assay: normalised response (% of control), CellTox Green; higher = less cell death (100 = DMSO, 0 = benzethonium chloride kill control)
How it was run: as §1

Row | Structure (SMILES) | normalised response (MDA-MB-468 [1]) | normalised response (MFM-223 [2]) | normalised response (BT-474 [3]) | normalised response (MDA-MB-231 [4]) | normalised response (HCC1599 [5]) | normalised response (CAL-120 [6]) | normalised response (CAL-85-1 [7]) | normalised response (DU-4475 [8]) | normalised response (HDQ-P1 [9]) | normalised response (BT-549 [10]) | normalised response (CAL-148 [11]) | normalised response (HCC1937 [12]) | normalised response (HCC1143 [13]) | normalised response (CAL-51 [14]) | normalised response (MCF-10A [15]) | normalised response (MDA-MB-436 [16]) | normalised response (MDA-MB-453 [17]) | normalised response (Hs578T [18]) | normalised response (MDA-MB-468 [19]) | normalised response (MFM-223 [20]) | normalised response (BT-474 [21]) | normalised response (MDA-MB-231 [22]) | normalised response (HCC1599 [23]) | normalised response (CAL-120 [24]) | normalised response (CAL-85-1 [25]) | normalised response (DU-4475 [26]) | normalised response (SK-BR-3) | normalised response (HDQ-P1 [27]) | normalised response (BT-549 [28]) | normalised response (CAL-148 [29]) | normalised response (HCC1937 [30]) | normalised response (HCC1143 [31]) | normalised response (CAL-51 [32]) | normalised response (MCF-10A [33]) | normalised response (MDA-MB-436 [34]) | normalised response (MDA-MB-453 [35]) | normalised response (Hs578T [36])
1 | CN(C)c1nc(N(C)C)nc(N(C)C)n1 [Altretamine] (100 nM) | 123% | 98.5% | 102% | 118% | 104% | 106% | 103% | 104% | 64.1% | 89.1% | 106% | 110% | 113% | 109% | 101% | 102% | 100% | 106% | 99% | 106% | 98.4% | 99.5% | 99.9% | 103% | 102% | 104% | 112% | 98.2% | 95.4% | 106% | 99.2% | 97.9% | 107% | 105% | 99.1% | 105% | –
2 | Nc1cc(C(F)(F)F)c(-c2cc(N3CCOCC3)nc(N3CCOCC3)n2)cn1 [Buparlisib] (100 nM) | 163% | 96.7% | 99% | 78.2% | 93.5% | 96.8% | 109% | 98.6% | 96.4% | 98.1% | 93.1% | 78.7% | – | 94.8% | 102% | 85.7% | 91% | 99.3% | 92.1% | 86.9% | 97.3% | 93% | 111% | 96.2% | 101% | 95.9% | 91.2% | 95.2% | 110% | 101% | 98% | 99% | 88.8% | 88.5% | 98.2% | 97.8% | 104%
3 | O=P1(N(CCCl)CCCl)NCCCO1 (stereo not given) [Cyclophosphamide] (400 nM) | – | 87.4% | 98.5% | 107% | 98.8% | 102% | 101% | 99% | – | 101% | 89.6% | 93.7% | 116% | 92.2% | – | 104% | 100% | 98.9% | 102% | 102% | 99% | 98.3% | 111% | 97.8% | 99.9% | 105% | 109% | 99.6% | 104% | 102% | 94.6% | 98.7% | 93.8% | 103% | 97.1% | 108% | 84.3%
4 | CCOC(=O)CCNc1cc(N2CCc3ccccc3CC2)nc(-c2ccccn2)n1 [GSK-J4] (1000 nM) | 110% | 86.8% | 100% | 112% | 95.1% | 97% | 113% | 106% | 89.9% | 97.1% | 97.7% | 92.9% | – | 86.2% | 103% | 84.1% | 102% | 98.3% | 67.7% | 93.6% | 99.7% | 95.8% | 100% | 105% | 96.9% | 99.5% | 98.5% | 95.4% | 47.3% | 92.7% | 84.7% | 103% | 57.2% | 106% | 89.8% | 70.3% | 80.2%
5 | COc1cc2ncnc(Nc3ccc(F)c(Cl)c3)c2cc1OCCCN1CCOCC1 [Gefitinib] (100 nM) | 92.2% | 73.2% | 100% | 70.7% | 102% | 83.3% | 93.8% | 99.9% | – | 94.8% | 87.3% | 87.2% | 116% | 89.6% | 101% | 98.3% | 101% | 99.5% | 96% | 101% | 96.5% | 106% | 82.5% | 99.4% | 88% | 103% | 94.8% | 80.8% | 91.8% | 113% | 93.3% | 103% | 90.7% | 59.3% | 104% | 96.5% | 68%
6 | O=C(Nc1ccncc1)C(=O)c1cn(Cc2ccc(Cl)cc2)c2ccccc12 [Indibulin] (100 nM) | 136% | 105% | 101% | 105% | 111% | 93.1% | 81.3% | 105% | 111% | 94.8% | 105% | 98.3% | 120% | 100% | 94.4% | 90.3% | 100% | 100% | 95.8% | 98.5% | 98.1% | 106% | 89.1% | 97.5% | 87.7% | 106% | 96.2% | 96.8% | 81.8% | 113% | 91.5% | 98.5% | 62% | 108% | 92% | 89.1% | –
7 | Oc1ccc2c(c1)CC[C@H](c1ccccc1)[C@@H]2c1ccc(OCCN2CCCC2)cc1 [Lasofoxifene] (10 nM) | – | 102% | 102% | 114% | 114% | 104% | 99.8% | 104% | 90.8% | 108% | 90.8% | 77% | 117% | 110% | 107% | 116% | 110% | 103% | 90.8% | 105% | 102% | 110% | 106% | 114% | 103% | 107% | 112% | 95.3% | 115% | 111% | 95.5% | 104% | 91.3% | 108% | 109% | 99.1% | –
8 | CO[C@H]1C[C@@H]2CC[C@@H](C)[C@@](O)(O2)C(=O)C(=O)N2CCCC[C@H]2C(=O)O[C@H]([C@H](C)C[C@@H]2CC[C@@H](OP(C)(C)=O)[C@H](OC)C2)CC(=O)[C@H](C)/C=C(\C)[C@@H](O)[C@@H](OC)C(=O)[C@H](C)C[C@H](C)/C=C/C=C/C=C/1C [Ridaforolimus] (1 nM) | 115% | 105% | 101% | 107% | 111% | 103% | 95.2% | 98.9% | – | 84.4% | 82.1% | 119% | 111% | 106% | 94.6% | 75.3% | 101% | 71.7% | 62.1% | 84.7% | 94% | 93.7% | 88.1% | 80.5% | 74.4% | 92.7% | 73.5% | 91.7% | 68.4% | 89.3% | 79.2% | 81.1% | 90.9% | 107% | 88.3% | 83.8% | 81%
9 | COc1cc2/c(=N/c3ccc(Br)cc3F)nc[nH]c2cc1OCC1CCN(C)CC1 [Vandetanib] (10 nM) | 104% | 99.1% | 95.4% | 85.3% | 81.1% | 97% | 101% | 91.9% | – | 98.2% | 89.6% | 84.5% | 91.8% | 95.5% | 83.3% | 55% | 80.8% | 94.5% | 87% | 86.5% | 87.1% | 92.5% | 85.7% | 95.7% | 90.2% | 93.2% | 82.3% | 91.7% | 98% | 89% | 94.6% | 92.1% | 87.1% | 78.3% | 97.2% | 72.2% | –

— the supplement of paper PMC4862054
